The results in this text go back to ChEMBL document CHEMBL3991601, “The target landscape of clinical kinase drugs” (Science, 2017).

For assay [1], the target named is T1, MAP/microtubule affinity-regulating kinase 4 (Homo sapiens, UniProt Q96L34).
T1 sequence (Q96L34 whole entry): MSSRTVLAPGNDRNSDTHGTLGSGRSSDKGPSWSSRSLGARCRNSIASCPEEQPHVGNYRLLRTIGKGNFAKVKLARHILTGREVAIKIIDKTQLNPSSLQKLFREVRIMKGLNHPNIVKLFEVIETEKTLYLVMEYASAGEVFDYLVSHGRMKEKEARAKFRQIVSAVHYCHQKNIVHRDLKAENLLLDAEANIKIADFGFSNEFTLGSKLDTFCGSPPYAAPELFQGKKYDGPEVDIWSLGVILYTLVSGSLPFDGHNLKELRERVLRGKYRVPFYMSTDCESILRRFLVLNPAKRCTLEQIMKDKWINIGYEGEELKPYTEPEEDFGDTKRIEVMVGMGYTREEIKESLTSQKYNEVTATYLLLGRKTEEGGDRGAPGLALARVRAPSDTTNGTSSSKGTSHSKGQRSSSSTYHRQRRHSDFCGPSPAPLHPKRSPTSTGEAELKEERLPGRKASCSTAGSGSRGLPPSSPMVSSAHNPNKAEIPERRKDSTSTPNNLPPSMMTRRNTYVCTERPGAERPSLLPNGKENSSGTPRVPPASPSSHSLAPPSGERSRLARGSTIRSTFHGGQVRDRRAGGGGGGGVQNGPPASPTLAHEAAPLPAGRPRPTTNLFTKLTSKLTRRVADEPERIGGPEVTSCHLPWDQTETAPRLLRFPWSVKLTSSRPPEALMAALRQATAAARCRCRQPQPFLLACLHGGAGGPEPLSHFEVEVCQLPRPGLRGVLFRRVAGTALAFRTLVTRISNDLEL

Assay [2] has as its target T2, Eukaryotic translation initiation factor 5B (Homo sapiens, UniProt O60841).
T2 sequence (O60841 whole entry): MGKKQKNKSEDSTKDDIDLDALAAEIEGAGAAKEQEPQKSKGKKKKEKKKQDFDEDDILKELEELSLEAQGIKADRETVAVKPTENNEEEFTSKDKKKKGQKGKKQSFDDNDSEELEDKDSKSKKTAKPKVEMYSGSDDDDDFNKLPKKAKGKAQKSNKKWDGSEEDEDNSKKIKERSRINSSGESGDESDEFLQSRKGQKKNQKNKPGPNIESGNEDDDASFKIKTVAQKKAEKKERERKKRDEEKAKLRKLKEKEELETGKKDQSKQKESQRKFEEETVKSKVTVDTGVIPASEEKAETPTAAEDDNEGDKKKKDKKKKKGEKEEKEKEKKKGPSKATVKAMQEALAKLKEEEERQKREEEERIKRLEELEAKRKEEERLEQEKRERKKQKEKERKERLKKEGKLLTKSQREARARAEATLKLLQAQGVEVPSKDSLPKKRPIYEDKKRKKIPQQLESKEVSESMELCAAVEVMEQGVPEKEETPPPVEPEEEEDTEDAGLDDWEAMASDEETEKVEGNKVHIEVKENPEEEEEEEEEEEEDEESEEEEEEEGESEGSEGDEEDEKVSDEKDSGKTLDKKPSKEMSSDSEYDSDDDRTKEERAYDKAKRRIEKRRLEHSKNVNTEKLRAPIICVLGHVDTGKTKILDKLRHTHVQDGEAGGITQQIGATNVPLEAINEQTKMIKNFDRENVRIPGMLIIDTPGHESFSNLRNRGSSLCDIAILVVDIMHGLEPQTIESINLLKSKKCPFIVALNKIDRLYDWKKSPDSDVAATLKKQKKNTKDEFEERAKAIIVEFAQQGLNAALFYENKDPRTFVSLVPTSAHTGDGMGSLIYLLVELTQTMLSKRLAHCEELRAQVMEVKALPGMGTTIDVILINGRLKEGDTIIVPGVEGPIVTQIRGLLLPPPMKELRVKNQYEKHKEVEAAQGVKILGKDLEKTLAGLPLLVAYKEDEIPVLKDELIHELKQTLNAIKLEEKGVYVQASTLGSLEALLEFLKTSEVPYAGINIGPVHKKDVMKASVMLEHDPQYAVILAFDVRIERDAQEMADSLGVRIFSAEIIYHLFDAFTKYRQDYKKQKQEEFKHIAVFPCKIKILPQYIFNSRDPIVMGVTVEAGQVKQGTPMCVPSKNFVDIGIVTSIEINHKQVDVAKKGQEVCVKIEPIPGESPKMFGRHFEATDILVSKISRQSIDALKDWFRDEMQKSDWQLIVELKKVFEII

The target of assay [3] is T3, Receptor-type tyrosine-protein kinase FLT3 (Homo sapiens, UniProt P36888).
T3 sequence (P36888 whole entry): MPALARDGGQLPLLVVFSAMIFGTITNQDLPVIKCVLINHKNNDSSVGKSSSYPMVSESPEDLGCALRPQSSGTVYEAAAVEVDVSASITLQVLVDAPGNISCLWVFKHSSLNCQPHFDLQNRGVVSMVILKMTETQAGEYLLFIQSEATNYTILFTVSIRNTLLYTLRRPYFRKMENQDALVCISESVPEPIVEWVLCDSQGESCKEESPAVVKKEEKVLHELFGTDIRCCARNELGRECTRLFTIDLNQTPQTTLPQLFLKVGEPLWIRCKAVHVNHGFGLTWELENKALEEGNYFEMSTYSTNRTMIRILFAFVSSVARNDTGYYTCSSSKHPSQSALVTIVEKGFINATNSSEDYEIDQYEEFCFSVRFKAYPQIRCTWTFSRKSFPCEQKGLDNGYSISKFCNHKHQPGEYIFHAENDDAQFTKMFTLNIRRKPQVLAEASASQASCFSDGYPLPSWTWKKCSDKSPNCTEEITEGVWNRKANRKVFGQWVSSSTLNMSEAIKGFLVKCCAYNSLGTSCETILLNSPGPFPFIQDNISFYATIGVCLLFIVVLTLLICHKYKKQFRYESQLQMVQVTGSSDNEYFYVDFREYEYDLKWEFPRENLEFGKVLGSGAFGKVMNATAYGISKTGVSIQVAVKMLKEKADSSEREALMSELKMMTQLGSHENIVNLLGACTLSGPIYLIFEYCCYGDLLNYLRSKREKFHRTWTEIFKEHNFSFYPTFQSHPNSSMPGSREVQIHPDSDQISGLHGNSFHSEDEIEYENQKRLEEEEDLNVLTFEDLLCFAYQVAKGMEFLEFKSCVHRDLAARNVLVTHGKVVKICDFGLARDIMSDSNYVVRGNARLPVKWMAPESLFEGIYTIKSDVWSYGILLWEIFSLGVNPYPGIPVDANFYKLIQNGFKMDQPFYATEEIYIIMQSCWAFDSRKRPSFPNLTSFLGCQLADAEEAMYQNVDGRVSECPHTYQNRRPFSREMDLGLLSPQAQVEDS

Assay [4] has as its target Dual specificity mitogen-activated protein kinase kinase 1 (Homo sapiens, UniProt Q02750).

Activity calls are given as the source filed them. For most assays here, no stated cut-off is given here; in the data, actives have a measured Kd and inactives only a lower limit. Bounds are passed on as bounds.

Dual specificity mitogen-activated protein kinase kinase 1, sequence (Q02750 whole entry): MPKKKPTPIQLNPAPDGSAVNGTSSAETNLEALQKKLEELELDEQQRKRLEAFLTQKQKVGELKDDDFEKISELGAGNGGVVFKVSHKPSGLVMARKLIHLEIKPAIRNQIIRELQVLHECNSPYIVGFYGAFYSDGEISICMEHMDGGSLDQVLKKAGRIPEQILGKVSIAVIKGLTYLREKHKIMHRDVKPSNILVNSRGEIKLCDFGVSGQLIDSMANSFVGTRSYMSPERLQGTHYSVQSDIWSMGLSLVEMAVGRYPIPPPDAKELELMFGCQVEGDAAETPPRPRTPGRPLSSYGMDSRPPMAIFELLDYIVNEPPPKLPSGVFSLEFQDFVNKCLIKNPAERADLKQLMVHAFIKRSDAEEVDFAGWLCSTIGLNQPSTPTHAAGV

Take `O=C(Nc1ccc(OC(F)(F)F)cc1)c1sccc1NCc1ccnc2ccccc12` [OSI-930]: the Kd in assay [1], in assay [2], in assay [3] and in assay [4] was > 30 µM (inactive) each time.
For `COc1cccc2cc(-c3nc([C@H]4CC[C@H](C(=O)O)CC4)n4ncnc(N)c34)[nH]c12` [OSI-027], the Kd in assay [1], in assay [2], in assay [3] and in assay [4] was > 30 µM (inactive) each time.
Take `O=c1[nH]c([C@@H]2CCCN2)nc2c1oc1ccc(Cl)cc12`: the Kd in assay [1], in assay [2], in assay [3] and in assay [4] was > 30 µM (inactive) each time.
Turning to `CN1CCN(c2nc(C3=C(c4c[nH]c5ccccc45)C(=O)NC3=O)c3ccccc3n2)CC1` [SOTRASTAURIN], the Kd in assay [1], in assay [2], in assay [3] and in assay [4] was > 30 µM (inactive) in each case.
For the compound `COc1ccc(-c2ccc3ncc4c(c3c2)n(-c2ccc(N3CCNCC3)c(C(F)(F)F)c2)c(=O)n4C)cn1` [BGT-226 FREE BASE], the Kd in assay [1], in assay [2], in assay [3] and in assay [4] was > 30 µM (inactive) throughout.
For the compound `CCc1cc2c(cc1N1CCC(N3CCOCC3)CC1)C(C)(C)c1[nH]c3cc(C#N)ccc3c1C2=O` [ALECTINIB], the Kd in assay [1], in assay [2], in assay [3] and in assay [4] was > 30 µM (inactive) in each case.
As for `C#Cc1cccc(Nc2ncnc3cc4c(cc23)OCCOCCOCCO4)c1` [ICOTINIB], the Kd in assay [1], in assay [2], in assay [3] and in assay [4] was > 30 µM (inactive) throughout.
With `Cn1c(=O)c(F)c(Nc2ccc(I)cc2F)c2c(=O)n(C[C@@H](O)CO)cnc21` [TAK-733], the Kd (as a rule, the free concentration of one partner at which half of the binding sites on the other are occupied at equilibrium, for simple one-to-one binding) is > 30 µM (inactive) in assay [1], > 30 µM (inactive) in assay [2], > 30 µM (inactive) in assay [3] and 0.021 µM (active) in assay [4].
For the compound `COc1cc2ncnc3c2cc1OCCCCCN(C)Cc1ccc(Br)cc1N3` [JNJ-26483327], the Kd in assay [1], in assay [2], in assay [3] and in assay [4] was > 30 µM (inactive) throughout.
For `COc1ccc2c(OCc3nnc4ccc(-c5ccccc5)nn34)ccnc2c1` [AMG-208], the Kd in assay [1], in assay [2], in assay [3] and in assay [4] was > 30 µM (inactive) throughout.
`NC(=O)c1ccc(N(C(N)=O)c2c(F)cccc2F)nc1-c1ccc(F)cc1F` [VX-702]: the Kd in assay [1], in assay [2], in assay [3] and in assay [4] was > 30 µM (inactive) throughout.
As to `CC(C)CC(=O)Nc1[nH]nc2c1CN(C(=O)C1CCN(C)CC1)C2(C)C` [PHA-793887], the Kd in assay [1], in assay [2], in assay [3] and in assay [4] was > 30 µM (inactive) throughout.
With `CNC(=O)c1cc(COc2nnc(Nc3ccc(Cl)cc3)c3ccoc23)ccn1` [TELATINIB], the Kd in assay [1], in assay [2], in assay [3] and in assay [4] was > 30 µM (inactive) in each case.
For `S=C(NCc1ccc2c(c1)OCO2)N1CCN(c2ncnc3c2oc2ccccc23)CC1` [AMUVATINIB], the Kd in assay [1], in assay [2], in assay [3] and in assay [4] was > 30 µM (inactive) throughout.
In the case of `Cc1ccc(C(=O)Nc2ccc(Oc3cc4cnn(C)c4cc3-c3cn[nH]c3)c(F)c2)c(=O)n1-c1ccc(F)cc1` [MERESTINIB], the Kd in assay [1] was > 30 µM (inactive); in assay [2] it was > 30 µM (inactive); in assay [3], 0.309 µM (active); in assay [4], > 30 µM (inactive).
With `C=CC(=O)Nc1cc(Nc2nccc(-c3cn(C)c4ccccc34)n2)c(OC)cc1N(C)CCN(C)C` [OSIMERTINIB], the Kd in assay [1], in assay [2], in assay [3] and in assay [4] was > 30 µM (inactive) each time.
Regarding `O[C@H]1CC[C@H](Nc2ncc3nc(Nc4c(F)cc(F)cc4F)n([C@H]4CCOC4)c3n2)CC1` [TANZISERTIB], the Kd in assay [1], in assay [2], in assay [3] and in assay [4] was > 30 µM (inactive) in each case.
